From patent US9833497B2, “Human originated EGF domain proteins and use of the same” (CHENGDU SOURCEBIO LIMITED-LIABILITY COMPANY, priority 2013, dated 2017)

How the values were obtained:
Format in all cases: cell-based
E. coli BL21 = assay: MIC against Gram-negative bacteria: E. coli BL21; settings: 5×10^5 CFU/mL
How it was run: (§1)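 Purified recombinant human EGF domain proteins are tested by broth dilution in LB against a 5×10^5 CFU/mL inoculum, with two-fold serial dilutions run in triplicate. Plates are incubated at 37° C with shaking, and the MIC is read as the lowest protein concentration without growth.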

Moraxella catarrhalis = assay: MIC against Gram-negative bacteria: Moraxella catarrhalis; settings: 5×10^5 CFU/mL
How it was run: as §1

Klebsiella pneumonia = assay: MIC against Gram-negative bacteria: Klebsiella pneumonia; settings: 5×10^5 CFU/mL
How it was run: as §1

Serratia marcescens = assay: MIC against Gram-negative bacteria: Serratia marcescens; settings: 5×10^5 CFU/mL
How it was run: as §1

Proteus vulgaris = assay: MIC against Gram-negative bacteria: Proteus vulgaris; settings: 5×10^5 CFU/mL
How it was run: as §1

Aeromonas hydrophila = assay: MIC against Gram-negative bacteria: Aeromonas hydrophila; settings: 5×10^5 CFU/mL
How it was run: as §1

Pseudomonas aeruginosa = assay: MIC against Gram-negative bacteria: Pseudomonas aeruginosa; settings: 5×10^5 CFU/mL
How it was run: as §1

Enterobacter cloacae = assay: MIC against Gram-negative bacteria: Enterobacter cloacae; settings: 5×10^5 CFU/mL
How it was run: as §1

E. coli DH5α = assay: Antibacterial activity: MIC and growth curve against E. coli DH5α in 96-well plate; settings: minimal inhibitory concentration against E. coli DH5α; 96-well plate, 5×10^5 CFU/mL, 37° C., judged after 8 h
How it was run: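 Log-phase bacteria (OD600 ~0.5) resuspended in LB at 5×10^5 CFU/mL, exposed to recombinant protein at 50, 25, 12.5 μg/mL final in triplicate, 37 °C shaking at 175 rpm. OD600 read every 30 min; MIC is lowest concentration showing no growth.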

Proteus mirabilis = assay: MIC against Gram-negative bacteria: Proteus mirabilis; settings: 5×10^5 CFU/mL
How it was run: as §1

Citrobacter diversus = assay: MIC against Gram-negative bacteria: Citrobacter diversus; settings: 5×10^5 CFU/mL
How it was run: as §1

[1] = 10 h cultivation at 37° C., two-fold serial dilution

PRT167 (TPNPCENDGVCTDIGGDFRCRCPAGFIDKTC; listed as Homo sapiens)
50 µg/mL: MIC (μg/mL) E. coli BL21 (E. coli BL21; E. coli BL21, 10 h cultivation at 37° C.) | MIC (μg/mL) K. pneumonia (Klebsiella pneumonia; K. pneumonia, 10 h cultivation at 37° C.)
25 µg/mL: MIC (μg/mL) P. vulgaris (Proteus vulgaris; P. vulgaris, 10 h cultivation at 37° C.) | MIC (μg/mL) P. mirabilis (Proteus mirabilis; P. mirabilis, 10 h cultivation at 37° C.) | MIC (μg/mL) C. diversus (Citrobacter diversus; C. diversus, 10 h cultivation at 37° C.)
12.5 µg/mL: MIC (μg/mL) M. catarrhalis (Moraxella catarrhalis; M. catarrhalis, 10 h cultivation at 37° C.) | MIC (μg/mL) S. marcescens (Serratia marcescens; S. marcescens, 10 h cultivation at 37° C.) | MIC (μg/mL) A. hydrophila (Aeromonas hydrophila; A. hydrophila, 10 h cultivation at 37° C.) | MIC (μg/mL) P. aeruginosa (Pseudomonas aeruginosa; P. aeruginosa, 10 h cultivation at 37° C.) | MIC (μg/mL) E. cloacae (Enterobacter cloacae; E. cloacae, 10 h cultivation at 37° C.) | MIC (E. coli DH5α)

PRT683 (DIDECSQDPSLCLPHGACKNLQGSYVCVCDEGFTPTQDQHGCE; listed as Homo sapiens)
25 µg/mL: MIC E. coli BL21 (E. coli BL21; 96-well plate, 37° C., 10 h) | MIC M. catarrhalis (Moraxella catarrhalis; 96-well plate, 37° C., 10 h) | MIC K. pneumonia (Klebsiella pneumonia; 96-well plate, 37° C., 10 h) | MIC S. marcescens (Serratia marcescens; 96-well plate, 37° C., 10 h) | MIC C. diversus (Citrobacter diversus; 96-well plate, 37° C., 10 h)
50 µg/mL: MIC P. vulgaris (Proteus vulgaris; 96-well plate, 37° C., 10 h) | MIC A. hydrophila (Aeromonas hydrophila; 96-well plate, 37° C., 10 h) | MIC P. aeruginosa (Pseudomonas aeruginosa; 96-well plate, 37° C., 10 h)
12.5 µg/mL: MIC E. cloacae (Enterobacter cloacae; 96-well plate, 37° C., 10 h) | MIC (E. coli DH5α) | MIC P. mirabilis (Proteus mirabilis; 96-well plate, 37° C., 10 h)

PRT723 (KERTCAENICEQNCTQLNEGGFICSCTAGFETNVFDRTSCL; listed as Homo sapiens)
100 µg/mL: MIC K. pneumonia (Klebsiella pneumonia; 96-well plate, 37° C., 10 h) | MIC P. aeruginosa (Pseudomonas aeruginosa; 96-well plate, 37° C., 10 h)
25 µg/mL: MIC P. vulgaris (Proteus vulgaris; 96-well plate, 37° C., 10 h) | MIC (E. coli DH5α) | MIC P. mirabilis (Proteus mirabilis; 96-well plate, 37° C., 10 h) | MIC C. diversus (Citrobacter diversus; 96-well plate, 37° C., 10 h)
50 µg/mL: MIC E. coli BL21 (E. coli BL21; 96-well plate, 37° C., 10 h) | MIC E. cloacae (Enterobacter cloacae; 96-well plate, 37° C., 10 h)
12.5 µg/mL: MIC M. catarrhalis (Moraxella catarrhalis; 96-well plate, 37° C., 10 h) | MIC S. marcescens (Serratia marcescens; 96-well plate, 37° C., 10 h) | MIC A. hydrophila (Aeromonas hydrophila; 96-well plate, 37° C., 10 h)

PRT1056 (DQDDCAPVGCSMYARCISEGEDATCQCLKGFAGDGKLCS; listed as Homo sapiens)
25 µg/mL: MIC E. coli BL21 (E. coli BL21; [1]) | MIC K. pneumonia (Klebsiella pneumonia; [1]) | MIC S. marcescens (Serratia marcescens; [1])
12.5 µg/mL: MIC M. catarrhalis (Moraxella catarrhalis; [1]) | MIC P. vulgaris (Proteus vulgaris; [1]) | MIC A. hydrophila (Aeromonas hydrophila; [1]) | MIC P. aeruginosa (Pseudomonas aeruginosa; [1])
50 µg/mL: MIC E. cloacae (Enterobacter cloacae; [1]) | MIC (E. coli DH5α) | MIC P. mirabilis (Proteus mirabilis; [1]) | MIC C. diversus (Citrobacter diversus; [1])

PRT626 (CDCQSAGSLHLQCDDTGTCACKPTVTGWKCDRCLPGFHSLSEGGCRP; listed as Homo sapiens)
25 µg/mL: MIC S. marcescens (Serratia marcescens; 96-well plate, 37° C., 10 h) | MIC P. aeruginosa (Pseudomonas aeruginosa; 96-well plate, 37° C., 10 h) | MIC E. cloacae (Enterobacter cloacae; 96-well plate, 37° C., 10 h) | MIC (E. coli DH5α) | MIC P. mirabilis (Proteus mirabilis; 96-well plate, 37° C., 10 h) | MIC C. diversus (Citrobacter diversus; 96-well plate, 37° C., 10 h)
12.5 µg/mL: MIC M. catarrhalis (Moraxella catarrhalis; 96-well plate, 37° C., 10 h) | MIC K. pneumonia (Klebsiella pneumonia; 96-well plate, 37° C., 10 h)
50 µg/mL: MIC E. coli BL21 (E. coli BL21; 96-well plate, 37° C., 10 h) | MIC P. vulgaris (Proteus vulgaris; 96-well plate, 37° C., 10 h) | MIC A. hydrophila (Aeromonas hydrophila; 96-well plate, 37° C., 10 h)

PRT552 (CACGPAAEGSECHPQSGQCHCRPGTMGPQCRECAPGYWGLPEQGCRR; listed as Homo sapiens)
100 µg/mL: MIC against E. coli BL21 (E. coli BL21; 96-well plate, 37° C., 10 h)
50 µg/mL: MIC against P. aeruginosa (Pseudomonas aeruginosa; 96-well plate, 37° C., 10 h) | MIC against E. cloacae (Enterobacter cloacae; 96-well plate, 37° C., 10 h) | MIC against C. diversus (Citrobacter diversus; 96-well plate, 37° C., 10 h)
12.5 µg/mL: MIC against K. pneumonia (Klebsiella pneumonia; 96-well plate, 37° C., 10 h) | MIC against S. marcescens (Serratia marcescens; 96-well plate, 37° C., 10 h) | MIC against A. hydrophila (Aeromonas hydrophila; 96-well plate, 37° C., 10 h) | MIC against P. mirabilis (Proteus mirabilis; 96-well plate, 37° C., 10 h)
25 µg/mL: MIC against M. catarrhalis (Moraxella catarrhalis; 96-well plate, 37° C., 10 h) | MIC against P. vulgaris (Proteus vulgaris; 96-well plate, 37° C., 10 h) | MIC (E. coli DH5α)
